Experimental data taken from ChEMBL document CHEMBL4396916, “Novel potent substituted 4-amino-2-thiopyrimidines as dual VEGFR-2 and BRAF kinase inhibitors” (Eur J Med Chem, 2019).

What was measured:
[1] = biological target: Vascular endothelial growth factor receptor 2 (Homo sapiens, UniProt P35968); experiment: Inhibition of human N-terminal GST tagged VEGFR-2 expressed in baculovirus infected Sf9 cells using poly (Glu,Tyr) 4:1 as substrate in presence of ATP by Kinase-Glo luminescence assay
MCF7 [2] = experiment: Cytotoxicity against human MCF7 cells expressing VEGFR2 and wild type BRAF measured after 48 hrs by sulforhodamine B assay; format: functional, cell-based; details: MCF7, 48 h
T47D [3] = experiment: Cytotoxicity against human T47D cells expressing wild type BRAF measured after 48 hrs by sulforhodamine B assay; format: functional, cell-based
MCF7 [4] = experiment: Inhibition of VEGFR2 level in human MCF7 cells at 10 uM measured after 48 hrs by ELISA relative to control; format: functional; details: MCF7, 48 h
NCI/ADR-RES = experiment: Growth inhibition of human NCI/ADR-RES cells at 10 uM incubated for 48 hrs by sulforhodamine B assay relative to control; format: functional; details: read-out: GI
CCRF-CEM = experiment: Growth inhibition of human CCRF-CEM cells at 10 uM incubated for 48 hrs by sulforhodamine B assay relative to control; format: functional; details: read-out: GI
MDA-MB-231 = experiment: Growth inhibition of human MDA-MB-231 cells at 10 uM incubated for 48 hrs by sulforhodamine B assay relative to control; format: functional; details: MDA-MB-231, 48 h, read-out: GI
HCT-116 = experiment: Growth inhibition of human HCT116 cells at 10 uM incubated for 48 hrs by sulforhodamine B assay relative to control; format: functional; details: HCT-116, 48 h, read-out: GI
BT-549 = experiment: Growth inhibition of human BT549 cells at 10 uM incubated for 48 hrs by sulforhodamine B assay relative to control; format: functional; details: BT-549, 48 h, read-out: GI
T47D [5] = experiment: Growth inhibition of human T47D cells at 10 uM incubated for 48 hrs by sulforhodamine B assay relative to control; format: functional; details: read-out: GI
NCI-H522 = experiment: Growth inhibition of human NCI-H522 cells at 10 uM incubated for 48 hrs by sulforhodamine B assay relative to control; format: functional; details: NCI-H522, 48 h, read-out: GI
CAKI-1 = experiment: Growth inhibition of human Caki1 cells at 10 uM incubated for 48 hrs by sulforhodamine B assay relative to control; format: functional; details: CAKI-1, 48 h, read-out: GI
A549 = experiment: Growth inhibition of human A549/ATCC cells at 10 uM incubated for 48 hrs by sulforhodamine B assay relative to control; format: functional; details: A549, 48 h, read-out: GI
NCI-H226 = experiment: Growth inhibition of human NCI-H226 cells at 10 uM incubated for 48 hrs by sulforhodamine B assay relative to control; format: functional; details: NCI-H226, 48 h, read-out: GI
SNB-75 = experiment: Growth inhibition of human SNB75 cells at 10 uM incubated for 48 hrs by sulforhodamine B assay relative to control; format: functional; details: SNB-75, 48 h, read-out: GI
SK-MEL-5 = experiment: Growth inhibition of human SK-MEL-5 cells at 10 uM incubated for 48 hrs by sulforhodamine B assay relative to control; format: functional; details: SK-MEL-5, 48 h, read-out: GI
UO-31 = experiment: Growth inhibition of human UO31 cells at 10 uM incubated for 48 hrs by sulforhodamine B assay relative to control; format: functional; details: UO-31, 48 h, read-out: GI
ACHN = experiment: Growth inhibition of human ACHN cells at 10 uM incubated for 48 hrs by sulforhodamine B assay relative to control; format: functional; details: read-out: GI
A498 = experiment: Growth inhibition of human A498 cells at 10 uM incubated for 48 hrs by sulforhodamine B assay relative to control; format: functional; details: A498, 48 h, read-out: GI
OVCAR-8 = experiment: Growth inhibition of human OVCAR8 cells at 10 uM incubated for 48 hrs by sulforhodamine B assay relative to control; format: functional; details: OVCAR-8, 48 h, read-out: GI
LOX IMVI = experiment: Growth inhibition of human LOXIMVI cells at 10 uM incubated for 48 hrs by sulforhodamine B assay relative to control; format: functional; details: read-out: GI
MDA-MB-468 = experiment: Growth inhibition of human MDA-MB-468 cells at 10 uM incubated for 48 hrs by sulforhodamine B assay relative to control; format: functional; details: MDA-MB-468, 48 h, read-out: GI
PC-3 = experiment: Growth inhibition of human PC3 cells at 10 uM incubated for 48 hrs by sulforhodamine B assay relative to control; format: functional; details: PC-3, 48 h, read-out: GI
MOLT-4 = experiment: Growth inhibition of human MOLT4 cells at 10 uM incubated for 48 hrs by sulforhodamine B assay relative to control; format: functional; details: MOLT-4, 48 h, read-out: GI
NCI-H23 = experiment: Growth inhibition of human NCI-H23 cells at 10 uM incubated for 48 hrs by sulforhodamine B assay relative to control; format: functional; details: NCI-H23, 48 h, read-out: GI
RPMI-8226 = experiment: Growth inhibition of human RPMI8226 cells at 10 uM incubated for 48 hrs by sulforhodamine B assay relative to control; format: functional; details: RPMI-8226, 48 h, read-out: GI
SR = experiment: Growth inhibition of human SR cells at 10 uM incubated for 48 hrs by sulforhodamine B assay relative to control; format: functional; details: read-out: GI
MCF7 [6] = experiment: Growth inhibition of human MCF7 cells at 10 uM incubated for 48 hrs by sulforhodamine B assay relative to control; format: functional; details: MCF7, 48 h, read-out: GI
IGROV-1 = experiment: Growth inhibition of human IGROV1 cells at 10 uM incubated for 48 hrs by sulforhodamine B assay relative to control; format: functional; details: IGROV-1, 48 h, read-out: GI
SN12C = experiment: Growth inhibition of human SN12C cells at 10 uM incubated for 48 hrs by sulforhodamine B assay relative to control; format: functional; details: read-out: GI
UACC-62 = experiment: Growth inhibition of human UACC62 cells at 10 uM incubated for 48 hrs by sulforhodamine B assay relative to control; format: functional; details: UACC-62, 48 h, read-out: GI
K562 = experiment: Growth inhibition of human K562 cells at 10 uM incubated for 48 hrs by sulforhodamine B assay relative to control; format: functional; details: K562, 48 h, read-out: GI

Vascular endothelial growth factor receptor 2, sequence (P35968 whole entry): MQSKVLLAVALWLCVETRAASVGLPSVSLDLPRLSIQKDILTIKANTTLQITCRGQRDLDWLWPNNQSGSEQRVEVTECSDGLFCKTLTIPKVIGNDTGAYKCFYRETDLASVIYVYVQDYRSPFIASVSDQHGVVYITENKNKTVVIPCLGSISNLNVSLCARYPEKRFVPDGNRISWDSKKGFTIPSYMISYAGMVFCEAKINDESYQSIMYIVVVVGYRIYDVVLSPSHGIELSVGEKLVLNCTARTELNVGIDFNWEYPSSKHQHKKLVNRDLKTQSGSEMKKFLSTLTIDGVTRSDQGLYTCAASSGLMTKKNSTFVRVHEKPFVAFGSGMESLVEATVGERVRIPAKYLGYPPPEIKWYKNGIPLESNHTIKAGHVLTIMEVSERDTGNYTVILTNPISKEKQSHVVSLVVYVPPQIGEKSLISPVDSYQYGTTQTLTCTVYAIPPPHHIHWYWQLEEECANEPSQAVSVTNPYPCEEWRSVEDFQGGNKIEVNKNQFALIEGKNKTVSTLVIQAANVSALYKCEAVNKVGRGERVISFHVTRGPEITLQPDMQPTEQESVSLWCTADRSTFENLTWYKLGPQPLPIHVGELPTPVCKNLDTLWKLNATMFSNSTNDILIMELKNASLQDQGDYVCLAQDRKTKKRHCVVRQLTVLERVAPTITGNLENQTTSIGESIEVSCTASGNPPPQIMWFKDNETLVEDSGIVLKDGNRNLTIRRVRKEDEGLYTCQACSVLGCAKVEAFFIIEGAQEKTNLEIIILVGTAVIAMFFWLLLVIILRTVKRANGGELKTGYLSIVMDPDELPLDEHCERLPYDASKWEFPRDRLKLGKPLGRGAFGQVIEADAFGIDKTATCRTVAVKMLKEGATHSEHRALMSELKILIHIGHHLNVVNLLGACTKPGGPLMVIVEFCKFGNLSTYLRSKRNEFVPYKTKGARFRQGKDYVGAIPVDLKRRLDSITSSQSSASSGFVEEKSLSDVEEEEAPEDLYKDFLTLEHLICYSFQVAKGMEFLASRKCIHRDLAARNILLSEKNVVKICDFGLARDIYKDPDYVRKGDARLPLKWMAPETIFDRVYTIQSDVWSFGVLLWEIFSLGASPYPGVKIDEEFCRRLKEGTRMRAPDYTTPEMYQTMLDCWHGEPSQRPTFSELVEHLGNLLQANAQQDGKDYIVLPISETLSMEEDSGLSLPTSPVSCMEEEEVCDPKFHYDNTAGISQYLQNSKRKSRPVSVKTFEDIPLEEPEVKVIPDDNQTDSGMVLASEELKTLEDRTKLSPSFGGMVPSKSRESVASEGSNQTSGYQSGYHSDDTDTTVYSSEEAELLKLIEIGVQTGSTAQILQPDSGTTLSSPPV

Work on `CCOC(=O)c1ccc(Nc2ccnc(SCC(=O)c3ccc(Cl)cc3)n2)cc1` yielded an IC50 [1] of over 10 µM and an IC50 (MCF7 [2]) of 20 µM.
With `O=C(O)c1ccc(Nc2ccnc(SCC(=O)c3ccc([N+](=O)[O-])cc3)n2)cc1` the IC50 [1] was over 10 µM and the IC50 (MCF7 [2]) was 53.2 µM.
Work on `CCOC(=O)c1ccc(Nc2ccnc(SCC(=O)c3ccc(C(F)(F)F)cc3)n2)cc1` yielded an IC50 [1] of 1.96 µM, an IC50 (T47D [3]) of 32.1 µM and an IC50 (MCF7 [2]) of 19.6 µM. For the same molecule, the inhibition at 10 µM (MCF7 [4]) was 76%.
Molecule `CNC(=O)c1cc(Oc2ccc(NC(=O)Nc3ccc(Cl)c(C(F)(F)F)c3)cc2)ccn1` [SORAFENIB] has an IC50 (T47D [3]) of 1.6 µM, an IC50 (MCF7 [2]) of 4.33 µM and an inhibition at 10 µM (MCF7 [4]) of 90%.
`O=C(O)c1ccc(Nc2ccnc(SCC(=O)c3ccc(-c4ccccc4)cc3)n2)cc1` was tested, and the IC50 [1] was 0.57 µM and the IC50 (MCF7 [2]) was 49 µM.
Work on `COc1ccc(C(=O)CSc2nccc(Nc3ccc(C(=O)O)cc3)n2)cc1` yielded an IC50 [1] of 1.43 µM, an IC50 (MCF7 [2]) of 37.8 µM and an inhibition at 10 µM (MCF7 [4]) of 40%.
For `CC(=O)c1ccc(Nc2ccnc(SCC(=O)c3ccc(Br)cc3)n2)cc1`, the IC50 [1] was 0.95 µM, the inhibition of growth at 10 µM (NCI/ADR-RES) was 31% and the inhibition of growth at 10 µM (CCRF-CEM) was 30%. For the same molecule, the inhibition of growth at 10 µM (MDA-MB-231) was 12%, the inhibition of growth at 10 µM (HCT-116) was 10% and the inhibition of growth at 10 µM (BT-549) was 19%. The inhibition of growth at 10 µM (T47D [5]) was 44%, the inhibition of growth at 10 µM (NCI-H522) was 29% and the inhibition of growth at 10 µM (CAKI-1) was 24%. It also gave an inhibition of growth at 10 µM (A549) of 10%, an inhibition of growth at 10 µM (NCI-H226) of 25% and an inhibition of growth at 10 µM (SNB-75) of 13%. For the same molecule, the inhibition of growth at 10 µM (SK-MEL-5) was 17%, the IC50 (MCF7 [2]) was 17.2 µM and the inhibition of growth at 10 µM (UO-31) was 38%. The inhibition of growth at 10 µM (ACHN) was 10%, the inhibition of growth at 10 µM (A498) was 19% and the inhibition of growth at 10 µM (OVCAR-8) was 18%. The inhibition of growth at 10 µM (LOX IMVI) was 14%, the inhibition of growth at 10 µM (MDA-MB-468) was 21% and the inhibition of growth at 10 µM (PC-3) was 25%. For the same molecule, the inhibition of growth at 10 µM (MOLT-4) was 39%, the inhibition of growth at 10 µM (NCI-H23) was 16% and the inhibition of growth at 10 µM (RPMI-8226) was 35%. The inhibition of growth at 10 µM (SR) was 25%, the inhibition of growth at 10 µM (MCF7 [6]) was 18% and the inhibition at 10 µM (MCF7 [4]) was 76%. The inhibition of growth at 10 µM (IGROV-1) was 12%, the inhibition of growth at 10 µM (SN12C) was 14% and the inhibition of growth at 10 µM (UACC-62) was 23%. The inhibition of growth at 10 µM (K562) was 30%.
In the case of `CC(=O)c1cccc(Nc2ccnc(SCC(=O)c3ccc(Cl)cc3)n2)c1`, the IC50 [1] is reported as 0.48 µM, the IC50 (T47D [3]) is reported as 33 µM and the IC50 (MCF7 [2]) is reported as 53.6 µM.
